The series in a line: Water solubility of sulfentrazone as a function of pH. The class given is physicochemical.

Regarding `Cc1nn(-c2cc(NS(C)(=O)=O)c(Cl)cc2Cl)c(=O)n1C(F)F` [sulfentrazone], the solubility in water result is given as “soluble in water” (at 7.5 pH) and “sparingly soluble in water” (pH ~5).

The record behind these values is patent US20120264603A1, “ATTACHMENT AND RETENTION FORMULATIONS FOR BIOLOGICALLY ACTIVE ORGANIC COMPOUNDS” (priority 2010, published 2012).
